Measurements from patent publication US20170196913A1, “ENHANCEMENT OF GLUCOSE-STIMULATED INSULIN SECRETION BY CELLS THROUGH INDUCTION OF CELLULAR SENESCENCE” (YISSUM RESEARCH DEVELOPMENT COMPANY OF THE HEBREW …, priority 2016, published 2017).

Columns and labels:
Type in all cases: cell-based, human
EndoC-βH2 cells [1] = test: Mitochondrial activity (membrane potential) by TMRE staining, FACS, of Cre-infected EndoC-βH2 cells; conditions: EndoC-βH2 cells three weeks after Cre infection
EndoC-βH2 cells [2] = test: Glucose stimulated insulin secretion (GSIS) of Cre-infected EndoC-βH2 cells, ELISA; design: GSIS (insulin levels secreted): dose or concentration left out as unconfirmed; conditions: EndoC-βH2 cells infected with Cre, versus vehicle
EndoC-βH2 cells [3] = test: Cell size (FSC) by FACS of Cre-infected EndoC-βH2 cells; conditions: EndoC-βH2 cells three weeks after Cre infection, 250 nM Torin1 versus vehicle

| SMILES | mitochondrial activity (TMRE staining) (EndoC-βH2 cells [1]; GW9662 50 mM twice a week, versus vehicle) | GSIS (insulin levels secreted) (EndoC-βH2 cells [2]; GW9662 twice a week for 3 weeks) | mitochondrial activity (TMRE staining) (EndoC-βH2 cells [1]; 250 nM Torin1 versus vehicle) | levels of insulin secretion (EndoC-βH2 cells [2]; 250 nM Torin1 starting 3 days after infection, for 3 weeks, low glucose 2.8 mM then high glucose 16.7 mM for 1 hour) | cell size (FSC) (EndoC-βH2 cells [3]) |
| --- | --- | --- | --- | --- | --- |
| O=C(Nc1ccccc1)c1cc([N+](=O)[O-])ccc1Cl [GW9662] | reduced | reduced GSIS |  |  |  |
| CCC(=O)N1CCN(c2ccc(-n3c(=O)ccc4cnc5ccc(-c6cnc7ccccc7c6)cc5c43)cc2C(F)(F)F)CC1 [Torin1] |  |  | reduced | lower levels of insulin secretion | reduced size |
